# Where a name gives a salt, the structure may show the parent alone.
# System: scopolamine-induced amnesia in mice
# Assay: Elevated plus maze (transfer latency) in scopolamine-induced amnesia mice
# Settings: donepezil hydrochloride 3 mg/kg p.o., 7-day pre-treatment; p<0.001
# Method: Groups III-V mice were dosed every 24 h interval with respective drugs for 7 consecutive days. On day 7, amnesia was induced in all the groups except the control group by intraperitoneal injection of scopolamine (1 mg/kg) 30 minutes after the respective treatments. 30 minutes later, elevated plus maze (EPM) was carried out to assess the cognitive function. At the end of experiment, mice were sacrificed; serum and brain homogenates were used for further analysis.
# Briefly, the acquisition trail (day 6) was carried out by placing the mouse at the end of an open arm. The time taken by the mouse to enter any of the closed arms was taken as transfer latency. Cutoff time allotted for each mouse was 180 s. Retention trail was carried out 24 h after the first trail (Day 7, 30 min after scopolamine treatment). The transfer latency was determined in a similar manner as mentioned before. Shortened transfer latency was considered as an index of memory improvement.
# In this study, EPM was applied as a behavioral model to assess learning and memory.
smiles,measurement,value
"COc1cc2c(cc1OC)C(=O)C(CC1CCN(Cc3ccccc3)CC1)C2 (stereo not shown) [donepezil, donepezil hydrochloride]",reduction of latency period (transfer latency) compared to scopolamine control group,82.45%

# Source: patent publication US11896600B2, “Composition and method of using eicosanoyl-5-hydroxytryptamide for treating neurodegenerative disorders” (Vidya Herbs, Inc., priority 2019, dated 2024)
